Data: patent US20250179043A1, “PROCESSES FOR THE PREPARATION OF N-(1-METHYLCYCLOPROPYL)-2-(3-PYRIDINYL)-2H-INDAZOLE-4-CARBOXAMIDE AND INTERMEDIATES THEREOF” (FMC CORPORATION, priority 2022, published 2025)

Legend:
[1] = Stable polymorph form screen (slurry experiments, final form by XRPD); format: physicochemical; conditions: for Final form (XRPD Result): start Form A + minor Form B
Method: Slurry experiments were conducted to identify the stable form at various conditions. In these experiments, saturated solutions in various solvents containing excess undissolved solids (starting with Form A+minor Form B) were stirred for extended durations. Slurries at room temperature (RT) and 2-8° C. were typically conducted for approximately 2 weeks, while slurries at 72-73° C. were stirred for a shorter duration (1 day) to minimize the potential for decomposition. […] The results are shown in the table 12 where the time and temperatures are approximate.

[2] = Form A and Form B interconversion (competitive) slurries, final form by XRPD; format: physicochemical
Method: Relative thermodynamic stabilities of anhydrous/non-solvated Forms A and B were studied at 2-8° C., room temperature (RT) and at 71-72° C. via interconversion (competitive) slurries. In these slurries, a given solvent system was pre-saturated with compound 092 (Form A+minor Form B) at the stated temperature, and a portion of the liquid phase was filtered into a mixture of solids containing relatively equal amounts of Form A and Form B. Interconversion slurries at 2-8° C. and RT were allowed to stir for 22 days, while slurries at 71-72° C. stirred for shorter duration (2-4 days). […] The results are reported in table 13 below where: liquid phase for each slurry was pre-saturated using as-received Form A+minor Form B; solvent ratios are v/v; water activity values were calculated using UNIFAC calculator at RT; and times and temperatures are approximate.

Structure (SMILES): CC1(NC(=O)c2cccc3nn(-c4cccnc4)cc23)CC1 [Compound 092, N-(1-methylcyclopropyl)-2-(3-pyridinyl)-2H-indazole 4-carboxamide]
- Final form (XRPD Result) ([1]; slurry in DCM, RT, 13 d): Form A
- Final form (XRPD Result) ([1]; slurry in DMF, RT, 13 d): Form A
- Final form (XRPD Result) ([1]; slurry in EtOH, 72-73° C., 1 d): Form A
- Final form (XRPD Result) ([1]; slurry in EtOH, RT, 13 d): Form A
- Final form (XRPD Result) ([1]; slurry in IPA, RT, 13 d): Form A
- Final form (XRPD Result) ([1]; slurry in MEK, 72-73° C., 1 d): Form A
- Final form (XRPD Result) ([1]; slurry in MEK, RT, 13 d): Form A
- Final form (XRPD Result) ([1]; slurry in MeOH, 2-8° C., 14 d): Form A
- Final form (XRPD Result) ([1]; slurry in MeOH, RT, 13 d): Form A
- Final form (XRPD Result) ([1]; slurry in acetone, RT, 13 d): Form A

Structure (SMILES): CC1(NC(=O)c2cccc3nn(-c4cccnc4)cc23)CC1 [Form A + Form B, N-(1-methylcyclopropyl)-2-(3-pyridinyl)-2H-indazole 4-carboxamide]
- Final form (XRPD Result) ([2]; competitive slurry in EtOH, 71-72° C., 2 d): Form A
- Final form (XRPD Result) ([2]; competitive slurry in EtOH, RT, 22 d): Form A
- Final form (XRPD Result) ([2]; competitive slurry in NMP/water 80:20 (aw 0.39), 2-8° C., 22 d): Form A
- Final form (XRPD Result) ([2]; competitive slurry in NMP/water 80:20 (aw 0.39), 71-72° C., 2 d): Form A
- Final form (XRPD Result) ([2]; competitive slurry in NMP/water 80:20 (aw 0.39), RT, 22 d): Form A

Structure (SMILES): CC1(NC(=O)c2cccc3nn(-c4cccnc4)cc23)CC1 [Form A, N-(1-methylcyclopropyl)-2-(3-pyridinyl)-2H-indazole 4-carboxamide]
- Relative thermodynamic stability of Forms A and B ([2]; between 2° C. and 72° C., from competitive slurries): thermodynamically stable form
- Relative stability of polymorph forms ([1]; between 2° C. and 73° C., from slurries): more stable than Form B
